One compound from patent US7935723B2, “Use of organic compounds” (Novartis Pharma AG, priority 2004, dated 2011) can be followed below.

For data set [1], the system named is patients with Type 2 diabetes. Description: Clinical study (12-week core + 40-week extension): HbA1c in patients with Type 2 diabetes on metformin. Format: in vivo, human. The note with it: over one year. As for the experimental part: This is a 40-week extension to core study, a 12-week randomized, parallel group, multi-center, placebo-controlled trial in patients with Type 2 diabetes who are already receiving metformin at a stable dosage of 1500-3000 mg daily. Patients treated with placebo, LAF237 50 mg OD (omnia die/once a day) in addition to metformin during the core study and maintained their treatment regimen in the extension. […] All patients are randomized to receive either placebo or LAF237 (50 mg) once dally for 52 weeks in addition to metformin at an unchanged dosage. During the 4-week run-in period, all patients receive LAF237 placebo tablets and are assessed for inclusion in the study. Patients meeting the inclusion criteria at the Baseline visit receives randomized treatment once daily for 52 weeks. The total study duration for each patient is 56 weeks. Throughout the study, patients are required to maintain their prior diet and exercise habits and to continue to take metformin at an unchanged dosage. […] This is measured by using Tosoh ion exchange High Performance Liquid Chromotography (HPLC). Primus Affinity HPLC is used as a back-up method if hemoglobin variants or hemoglobin degradation peaks are observed. The primary efficacy variable is change from baseline in HbA1c at the end of the study. […]

In data set [2] the test system is patients with Type 2 diabetes. Nature of the data set: Clinical study: safety and tolerability, study completion. Format: in vivo, human. The settings on record: 52 weeks, in combination with metformin. An excerpt:
Safety assessments consist of monitoring and recording all non-serious and serious adverse events (SAE), the regular monitoring of hematology, blood chemistry and urinalysis values, regular measurement of vital signs, the performance of physical examinations and body weight measurements. The assessment of safety is based mainly on the frequency of adverse events and on the number of laboratory values that fall outside of pre-determined ranges. Other safety data (e.g. vital signs) will be considered as appropriate.

As to `N#C[C@@H]1CCCN1C(=O)CNC12CC3CC(CC(O)(C3)C1)C2` [LAF237, (S)-1-[(3-hydroxy-1-adamantyl)amino]acetyl-2-cyano-pyrrolidine], the “course of HbA1c levels (in words)” value in data set [1] was “decreased significantly”. In addition, the tolerability result in data set [2] is on record as “well tolerated”.
